Paper PMC7876106 (Scientific Reports, 2021)
pEC50: −log10 of the molar value.

Assays:
[1] = test system: TERRA (5'-fluorescein) (RNA, G4) UUAGGGUUAGGGUUAGGGUUAGGG; experiment: fluorescence polarization; details: 20 mM HEPES pH 7.5, room temperature; for binding: 150 mM salt (KCl, NaCl or LiCl; which not stated), tRNA competitor, dilutions from 50 μM compound
TeloDNA and TRF2 complex = experiment: FP inhibition assay, TRF2 GAR binding to TeloDNA
Procedure: (§1) All the nucleic acids, peptides and chemicals were dissolved in buffer containing 20 mM HEPES pH7.5, 150 mM salt (KCl, NaCl, LiCl) at the stock concentration of 1 mM. For peptide and nucleic acid interactions, 25μL of each nucleic acids with a sequential twofold dilutions starting from 50 μM was added into each well of 96-well plate followed by adding 25μL of 10 nM FITC labeled TRF2 peptide. For compounds and nucleic acid interactions, 20μL of each compounds with a sequential twofold dilutions starting from 50 μM were added into each well of 96-well plate followed by adding 5μL of 20 ng/mL tRNA and 25μL of 10 nM FAM labeled nucleic acids. For inhibition assay, 5μL FITC labeled TRF2 GAR peptide (10 nM final concentration) and 10 μL oligos (5 μM final concentration) were mixed, followed by adding 5μL of each compound with a sequential twofold dilutions starting from 50 μM into each well of 384-well plate. All components were mixed thoroughly, and the plate was incubated at room temperature for 1 h before placing in an Envision Plate Reader for reading at 495/520 nm. All data curves were fitted using Prism 8.0.

LOX cells = experiment: TIF assay (IF FISH, γH2AX or 53BP1 with telomere DNA) in LOX cells; assay type: cell-based, human; details: 2 μM, 3 days
Procedure: Mei et al, 2020 TERRA Requires TRF2 GAR Domain […]
(§2) Indirect immunofluorescence (IF) combined with fluorescence in situ hybridization (FISH) analysis for telomere dysfunction was performed as described 4 with some modifications. Briefly, cells grown on coverslips were fixed for 15 min in 2% paraformaldehyde/1x PBS at RT, followed by permeabilization for 10 min in 1x PBS/0.5% Triton X-100 at RT. After washing with 1x PBS, cells were incubated for 60 min in blocking solution (0.5% BSA, 0.2% fish gelatin, 0.1% Triton X-100, 1 mM EDTA in 1x PBS) before immuno-staining. Primary antibodies were prepared in blocking solution at following dilutions: anti-53BP1 (1:500, IHC-00001; Bethyl Laboratories) and γH2AX (1:2,000, A300-081A; Bethyl Laboratories). After IF, cells were fixed in 4% paraformaldehyde in 1x PBS for 10 min, washed in 1x PBS, dehydrated in ethanol series (70%, 95%, 100%), and air-dried. Coverslips were denatured for 5 min at 80-85° C in hybridization mix [70% formamide, 10 mM Tris-HCl, pH 7.2, and 0.5% blocking solution (Roche)] containing telomeric PNA-Cy3-(CCCTAA)3 probe, and hybridization was continued for 2 hrs at room temperature in the dark moisturized chambers. Coverslips were washed twice for 15 min each with 70% formamide, 10 mM Tris-HCl (pH 7.2), and 0.1% BSA, and followed by three washes for 5 min each with 0.15 M NaCl, 0.1 M Tris-HCl (pH 7.2), and 0.08% Tween-20. Nuclei were counterstained with 0.1 µg/ml DAPI in blocking solution and coverslips mounted with VectorShield (Vector Laboratories). RNA FISH was performed as previously described 1.
Images were captured with a 100x lens on a Nikon E600 Upright microscope (Nikon […]
Instruments, Inc., Melville, NY) with ImagePro Plus software (Media Cybernetics, Silver Spring, MD) for image processing. Cells with > 5 53BP1/γH2AX foci co-localizing with telomere DNA foci were scored as positive for TIF. The quantification was generated from at least three independent Immuno-FISH experiments. […]
0.1 μg/mL DAPI in 1x PBS and slides were mounted with VectorShield (Vector Laboratories).
Images were taken with a 100x lens on a Nikon E600 Upright microscope (Nikon Instruments) using ImagePro Plus software (Media Cybernetics) for image processing. Statistical analysis was performed using two-tailed Student t Test.

TERRA [2] = experiment: FP assay, compound binding to 5′ fluorescein-labeled TERRA
Procedure: as §1

TERRA in LOX cells = experiment: TERRA levels by RNA dot blot and Northern blot in LOX cells; assay type: cell-based, human
G4 TeloDNA = experiment: FP assay, compound binding to 5′ fluorescein-labeled TeloDNA
Procedure: as §1

[3] = test system: TERRA (unlabelled) (RNA, G4) UUAGGGUUAGGGUUAGGGUUAGGG; experiment: fluorescence polarization, displacement of TRF2 GAR peptide; details: 150 mM salt (KCl, NaCl or LiCl; which not stated); 20 mM HEPES pH 7.5, room temperature; FITC-TRF2 GAR peptide 10 nM; 5 μM oligo; dilutions from 50 μM compound
TERRA and TRF2 complex = experiment: FP inhibition assay, TRF2 GAR binding to TERRA; details: FP
Procedure: as §1

EBNA1 G4 RNA = experiment: FP assay, compound binding to EBNA1 G4 RNA
Procedure: as §1

[4] = test system: TeloDNA antisense (5'-fluorescein) (DNA, single strand) CCCTAACCCTAACCCTAACCCTAA; experiment: fluorescence polarization; details: 150 mM salt (KCl, NaCl or LiCl; which not stated); 20 mM HEPES pH 7.5, room temperature, tRNA competitor; dilutions from 50 μM compound
[5] = test system: TRF2 binding to telomere DNA; experiment: DNA ChIP assay of TRF2 binding to telomere DNA in LOX cells; assay type: cell-based, human; details: 2 μM, 2 days
Procedure: The lysates were sonicated, cleared by centrifugation, and supernatants were diluted 10 fold into IP Buffer (0.01% SDS, 1.1% Triton X-100, 1.2mM EDTA, 16.7mM Tris pH 8.1, 167mM NaCl, protease inhibitors cocktail, 50U/ml SUPERase•in) for IP reaction with rabbit IgG (Santa Cruz Biotechnology) or rabbit polyclonal anti-TRF2 (Pocono Rabbit Farm) at 4 ° C overnight. Each immune complex was collected by Dynal A beads (Invitrogen), washed five times (1 ml wash, 10 mins each) in ChIP related wash buffer at 4 ° C, eluted by addition of 200µl Elution buffer (10mM Tris, pH 8.0, 5mM EDTA, 1% SDS, 50U/ml SUPERase.In) at 70 °C for 20 mins, and the elutes were placed at 70 °C for 2 hrs to reverse cross-linking. […]
DNA ChIP assays was performed as described previously 3 with minor modifications. Briefly, 1 x 10^7 LOX cells treated with indicated chemicals (2 µM) for 48 hrs were subject to ChIP analysis and immunoprecipitated DNA was assayed by DNA dot-blot using 32P-labeled (TTAGGG)4 or Alu probe. […]

[6] = test system: TeloDNA (unlabelled) (DNA, G4) TTAGGGTTAGGGTTAGGGTTAGGG; experiment: fluorescence polarization, displacement of TRF2 GAR peptide; details: 150 mM salt (KCl, NaCl or LiCl; which not stated); 20 mM HEPES pH 7.5, room temperature; FITC-TRF2 GAR peptide 10 nM; 5 μM oligo; dilutions from 50 μM compound
[7] = test system: TERRA antisense (5'-fluorescein) (RNA, single strand) CCCUAACCCUAACCCUAACCCUAA; experiment: fluorescence polarization; details: 150 mM salt (KCl, NaCl or LiCl; which not stated); 20 mM HEPES pH 7.5, room temperature, tRNA competitor; dilutions from 50 μM compound
TERRA [8] = experiment: CD spectroscopy of TERRA mixed with compound; details: 1:1 molar ratio, 150 mM KCl buffer
Procedure: All nucleic acids were dissolved in buffer containing 20 mM HEPES pH7.5, 150 mM salt (KCl or LiCl), 20% PEG8000 at the concentration of 10 μM for experiments. A J-815 spectrometer equipped with a PFD-425S Peltier cell holder was used to measure CD spectra at 4 °C between 200 and 340 nm to determine the secondary structure content of various oligo constructs. The molar ellipticity was calculated and the plot was made using Excel.

[9] = test system: TeloDNA (5'-fluorescein) (DNA, G4) TTAGGGTTAGGGTTAGGGTTAGGG; experiment: fluorescence polarization; details: 20 mM HEPES pH 7.5, room temperature; for binding: 150 mM salt (KCl, NaCl or LiCl; which not stated), tRNA competitor, dilutions from 50 μM compound
[10] = test system: telomere repeat DNA in LOX cells; experiment: Telomere length analysis (PFGE, Southern blot) of LOX cells; assay type: cell-based, human; details: TLA
Procedure: Genomic DNA was isolated from cells using a genomic DNA purification kit (Promega) and digested with AluI and MboI. Digested genomic DNA was purified by phenol/choloroform extraction and quantified using a Qubit 4 Fluorometer (Thermal Scientific). Equal amounts of digested DNA (5 μg) were separated by pulse-field gel electrophoresis (PFGE) performed with a 1% agarose gel at 6V/cm, switch times from 1 to 12s, 15 °C for 12h using CHEF-DRIII system (Bio-Rad). The DNA was transferred to GeneScreen Plus blotting membranes (Perkin-Elmer) and analyzed by Southern blot. The blots were hybridized with a 32P-labeled telomere repeat or […]
Alu probe at 42 °C overnight, then washed twice for 5 min each with 0.2 M wash buffer (0.2 M Na2HPO4 pH 7.2, 1 mM EDTA, and 2% SDS) at room temperature and once for 10 min with 0.1 M wash buffer at 42°C. Relative telomere-repeat signals were determined by Typhoon 9410 Imager and ImageQuant TL software (GE Healthcare). Signal intensity represents the percentage decrease of average telomere signals relative to dox (-) or PP control. […]
as §2, with “100,” for “Indirect immunofluorescence (IF) combined with fluorescence in situ hybridization (FISH) analysis for telomere dysfunction was performed as described 4 with some modifications. Briefly, cells grown on coverslips were fixed for 15 min in 2% paraformaldehyde/1x PBS at RT, followed by permeabilization for 10 min in 1x PBS/0.5% Triton X-100 at RT. After washing with 1x PBS, cells were incubated for 60 min in blocking solution (0.5% BSA, 0.2% fish gelatin, 0.1% Triton X-100,”
Images were captured with a 100x lens on a Nikon E600 Upright microscope (Nikon

TeloDNA = experiment: FP assay, FITC labeled TRF2 peptide with TeloDNA; assay type: binding; details: 10 nM FITC peptide
Procedure: as §1

TERRA [11] = experiment: FP assay, FITC labeled TRF2 peptide with TERRA; assay type: binding; details: 10 nM FITC peptide
Procedure: as §1

antisense TERRA = experiment: FP assay, FITC labeled TRF2 peptide with antisense TERRA; assay type: binding; details: 10 nM FITC peptide
Procedure: as §1

antisense TeloDNA = experiment: FP assay, FITC labeled TRF2 peptide with antisense TeloDNA; assay type: binding; details: 10 nM FITC peptide
Procedure: as §1

[12] = 150 mM KCl, NaCl or LiCl (salt not specified), 20 mM HEPES, tRNA competitor added, 10 nM probe, apparent
[13] = 10 nM fluorescein-labeled probe, 3 independent experiments

`C=CC1=C(C)c2cc3[nH]c(cc4nc(cc5[nH]c(cc1n2)c(C)c5CCC(=O)O)C(CCC(=O)O)=C4C)c(C)c3C=C` [PP, protoporphyrin IX] was tested, and the binding [1] was “no”, the “IC50 for TRF2 GAR-TeloDNA” value (TeloDNA and TRF2 complex) was “no measurable IC50” and the “level of γH2AX or 53BP1 associated telomere dysfunction-induced foci (TIFs)” value (LOX cells) was “equivalent to background”. The “binding to TERRA” value (TERRA [2]) was “no measurable affinity”, the “accumulation of TERRA as a shorter form” value (TERRA in LOX cells; 2 μM, 3 days, Northern blot) was “not observed” and the “binding activity for G4 TeloDNA” value (G4 TeloDNA) was “no binding activity”. For the same molecule, the binding [3] was “no”, the “IC50 for TRF2 GAR-TERRA” value (TERRA and TRF2 complex) was “no measurable IC50” and the “binding to EBNA1 G4 RNA” value (EBNA1 G4 RNA) was “did not display any binding”. For the same molecule, the binding [4] was “no”, the “effect on TRF2 binding to telomere DNA” value [5] was “Neither NMM, PP, nor BRACO-19 had any significant effect” and the binding [6] was “no”. For the same molecule, the binding [7] was “no”, the “alteration of CD spectrum of TERRA at major peak (~260 nm)” value (TERRA [8]) was “not BRACO-19 or PP altered the CD spectrum” and the binding [9] was “no”.

`NCCOc1cc(C(=O)Nc2cc(OCCN)c3ccccc3n2)nc(C(=O)Nc2cc(OCCN)c3ccccc3n2)c1` [PDS, pyridostatin] was tested, and the EC50 [1, 12] was 0.66 µM, the pEC50 (TERRA [2]; [13]) was 6.18 and the “total TERRA levels relative to PP control” value (TERRA in LOX cells; 2 μM, 3 days, RNA dot blot and Northern blot) was “also reduced TERRA levels”. For the same molecule, the pEC50 (G4 TeloDNA; [13]) was 7.30, the “telomere repeat DNA signals” value [10] was “to a lesser extent” and the pEC50 (EBNA1 G4 RNA) was 6.70. The “binding to EBNA1 G4 RNA” value (EBNA1 G4 RNA) was “high binding affinity” and the EC50 [9, 12] was 0.05 µM.

For “AAAGAAASASSGAAAAGAHEPGLGGPAEAGAGEAA [Ala mutant, control peptide with each of the 10 arginine residues mutated to alanine]”, the “peptide binding to TeloDNA” value (TeloDNA) was “no detectable binding”, the “peptide binding to TERRA” value (TERRA [11]) was “no detectable binding” and the “peptide binding to antisense TERRA” value (antisense TERRA) was “Neither TRF2 GAR nor the Ala mutant showed any detectable binding”. For the same molecule, the “peptide binding to antisense TeloDNA” value (antisense TeloDNA) was “Neither TRF2 GAR nor the Ala mutant showed any detectable binding”.

With `C[n+]1cc(NC(=O)c2ccc3ccc4ccc(C(=O)Nc5cc6ccccc6[n+](C)c5)nc4c3n2)cc2ccccc21` [Phen-DC3] the binding [1] was “no”, the “binding to TERRA” value (TERRA [2]) was “only PDS bound” and the “binding activity for G4 TeloDNA” value (G4 TeloDNA) was “only PDS bound”. The binding [9] was “no”.

For `COS(=O)(=O)[O-].Cc1cc2c3c([n+](C)c4ccc(F)cc4c3c1)-c1cc(F)ccc1N2C` [RHPS4, acridinium methosulfate], the binding [1] was “no”, the “binding to TERRA” value (TERRA [2]) was “only PDS bound” and the “binding activity for G4 TeloDNA” value (G4 TeloDNA) was “only PDS bound”. The binding [9] was “no”.

In the case of `C[C@H]1c2cccc(O)c2C(=O)C2=C(O)[C@]3(O)C(=O)C(C(N)=O)=C(O)[C@@H](N(C)C)[C@@H]3[C@@H](O)[C@@H]21` [Dox, doxycycline], the “effect of Dox treatment on TERRA” value (TERRA in LOX cells; doxycycline 1 µg/ml, 2 days, RNA dot blot) was “no effect on TERRA”.
